From PubChem BioAssay AID1159563 (GlaxoSmithKline (GSK), 2015)
Activity calls are given as the source filed them. No rule for the calls is given here.

tested on: HepG2 cytotoxicity; test: HepG2 cell cytotoxicity, cytotoxicity control (AID 1159563)

Compound	IC50
O=C(Nc1nc(-c2ccccn2)cs1)c1ccc(S(=O)(=O)N2CCCCC2)cc1	63 µM
Fc1ccccc1N1C[C@H]2CCN(c3cccnc3)C[C@H]2C1	> 100 µM (inactive)
Cc1nnnn1-c1cccc(C(=O)N2CCC[C@@]3(C)c4ncncc4CCC23)c1 (some centres not stated)	> 100 µM (inactive)
CC(C(=O)Nc1ccccc1F)N(C)CC(=O)Nc1cccc2ccccc12 (configuration not stated)	> 100 µM (inactive)
CN(C)S(=O)(=O)c1cccc(CSc2nnc(-c3ccc4c(c3)OCO4)o2)c1	> 100 µM (inactive)
COc1ccnc2[nH]cc(-c3cc(C(=O)N[C@H](CO)c4ccccc4)co3)c12	16 µM
COc1ccc(NS(=O)(=O)c2cc(NC(=O)Cc3ccc(C)cc3)ccc2N2CCOCC2)cc1	> 100 µM (inactive)
CC(C)(C)c1cc(NC2CC2)nc(-c2ccccn2)n1	> 100 µM (inactive)
NCc1ccc2c(Cl)cc(Cl)c(O)c2n1	25 µM
CCN(C)Cc1ccc(N2CCC(NS(=O)(=O)c3ccc4c(c3)CCO4)CC2)nc1	> 100 µM (inactive)
COc1ccc(Oc2ccc(C(C)N(C)c3ncc4c(N)nc(N)nc4n3)cc2)cc1 (configuration not stated)	40 µM
CC(C)(C)c1csc(NC(=O)c2ccc([N+](=O)[O-])s2)n1	50 µM
CCn1nccc1CN(C)C(=O)C=Cc1ccc(Cl)cc1	> 100 µM (inactive)
O=C1CN(C2CCCc3c(OCc4ccncc4)cccc32)C(=O)N1C1CCCCC1 (configuration not stated)	> 100 µM (inactive)
CC(CCc1ccccc1)NC(=O)CN(Cc1ccccn1)Cc1ccccn1 (configuration not stated)	> 160 µM (inactive)
Cc1ccc(NC(=O)c2ccc(Cl)c(NC(=O)c3ccc([N+](=O)[O-])cc3)c2)cc1	> 100 µM (inactive)
O=c1ccc2ccc(F)c3c2n1C[C@H]3CN1CCC(NCc2cc3ccccc3o2)CC1	40 µM
CNC(=O)C1Cc2ccccc2N1C(=O)Cc1ccc(F)cc1 (configuration not stated)	> 100 µM (inactive)
O=C(N[C@H](CO)c1ccccc1)c1ccc(-c2c[nH]c3nccc(C(F)(F)F)c23)s1	63 µM
COc1ccc(Nc2nc(-c3ccccn3)cc(N3CCCC(O)C3)n2)cc1 (configuration not stated)	40 µM
Cc1nn(-c2nc3ccccc3[nH]2)c2c1C(c1ccc(O)cc1)CC(=O)N2 (configuration not stated)	25 µM
Cc1cc(NC(=O)c2ccc([N+](=O)[O-])s2)ccc1Br	40 µM
Cc1nn(C2CCS(=O)(=O)C2)c(C)c1CN(C)C(=O)C=Cc1sc2ccccc2c1Cl (configuration not stated)	> 100 µM (inactive)
CS(=O)(=O)NC1CCC(Nc2ncc(Br)c(Nc3ccccc3C(N)=O)n2)CC1 (configuration not stated)	> 100 µM (inactive)
O=S(=O)(c1ccccc1C(F)(F)F)N1CCN(Cc2ccc(-n3ccnc3)cc2)CC1	> 100 µM (inactive)
CN(Cc1nc2ccccc2s1)C(=O)C=Cc1cc2ccccc2o1	> 100 µM (inactive)

Compound	IC50
O=[N+]([O-])c1cccc(Nc2cncc(-c3ccccc3CO)c2)c1	> 100 µM (inactive)
CN(C)CCOc1ccc(N2CCN(S(=O)(=O)c3ccc(Cl)cc3)CC2)cc1	50 µM
O=S1N=C(NCCCN(Cc2ccc(F)cc2)c2ccccn2)C(NCc2ccncc2)=N1 (configuration not stated)	79 µM
CN1CCC(N(C)c2nccc(N3CCN(C(=O)c4cccc(-c5cccnc5)c4)CC3)n2)CC1	40 µM
C[C@@H](Oc1cc(-n2cnc3ccc(C(O)CO)cc32)sc1C(N)=O)c1ccccc1C(F)(F)F (some centres not stated)	> 10 µM (inactive)
CCCc1cc(C(=O)Nc2ncc(-c3cccc(Br)c3)n2C)n[nH]1	> 100 µM (inactive)
O=[N+]([O-])c1ccc(C2=CC(c3ccccc3)=NCCN2)cc1	50 µM
O=S(=O)(NCC(c1cccnc1)N1CCN(c2ccc(F)cc2)CC1)c1cccs1 (configuration not stated)	> 100 µM (inactive)
COc1ccccc1CNc1cc(C2CC2)nc(-c2nccn2C)n1	20 µM
Cn1cc(CN2CCN(c3ccc4c(c3)CCN(C(=O)[C@H]3C[C@@H]3c3ccccc3)CC4)CC2)cn1	50 µM
CCOc1ccc(CC(=O)N2c3ccccc3CC2C(=O)NC)cc1 (configuration not stated)	> 100 µM (inactive)
COc1ccc(-c2cnc(NC(=O)c3cc(-c4ccccn4)n[nH]3)n2C)cc1	> 100 µM (inactive)
Cc1ncsc1CNc1cnc(-c2ccc3c(c2)OCCO3)c(-c2cnn(C)c2)c1	> 100 µM (inactive)
COc1ccc(S(=O)(=O)NC(C)C)cc1Nc1ncc(-c2cccc(F)c2)cn1	> 100 µM (inactive)
Cc1[nH]n2c(=O)c3c(nc2c1-c1ccc(Br)cc1)CCCC3	> 100 µM (inactive)
O=S(=O)(c1cccc(CSc2nnc(-c3ccc4c(c3)OCO4)o2)c1)N1CCOCC1	> 100 µM (inactive)
O=C(Nc1nc(-c2ccccn2)cs1)C1CCc2ccccc2C1 (configuration not stated)	40 µM
Cc1cc(-c2cccc3ccccc23)nc2nc(N)nc(N)c12	50 µM
Cc1nc2c(-c3n[nH]c(-c4ccccc4N)n3)cccn2c1C	16 µM
COCCn1cnc2cc(NC(=O)C3CCCCC3)cc(C(=O)N3CCc4sccc4C3)c21	> 100 µM (inactive)
O=C(CSc1ccc(F)cc1)N[C@@H](Cc1cnc[nH]1)C(=O)NCCc1ccccc1	> 100 µM (inactive)
CC(=Cc1ccccc1)CN1CCC(=O)N(Cc2cccnc2)CC1	> 100 µM (inactive)
COc1ccc(C(=O)Nc2ccc(NC(=O)CO)cc2)cc1	> 100 µM (inactive)
CNS(=O)(=O)c1ccccc1Nc1nc(Nc2ccnn2C)ncc1Cl	50 µM
Cc1ccc2c(c1)SC(C(=O)Nc1n[nH]c(-c3ccccn3)n1)C2 (configuration not stated)	25 µM
COc1ccc(-c2cc(C)no2)cc1S(=O)(=O)Nc1ccc(C)c(C)c1	> 100 µM (inactive)

Compound	IC50
Cc1cc2cncn2c(C2CCCCN2C(=O)c2cccs2)n1 (configuration not stated)	> 100 µM (inactive)
CCC(=O)Nc1ccc(-c2nc3ccc(Cl)cc3[nH]2)cc1	> 100 µM (inactive)
CC(C)c1sc(Cl)nc1C(=O)NCCc1nc(C(=O)Nc2ccc3c(c2)OCO3)cs1	> 100 µM (inactive)
c1ccc2[nH]c(-c3ccc(N4CCCC4)nc3)nc2c1	> 100 µM (inactive)
FC(F)(F)c1cc(C2CCCN(Cc3c[nH]c4ccccc34)C2)nc2ncnn12 (configuration not stated)	> 100 µM (inactive)
CCCn1c(NC(=O)CCn2cc(Br)cn2)nc2ccccc21	> 100 µM (inactive)
COc1cc(C2SCC(=O)Nc3c2c(C)nn3-c2nc3ccccc3s2)cc(OC)c1O (configuration not stated)	> 100 µM (inactive)
CC(C)N(C(=O)CN1C(=O)C(N)C(=O)N(c2ccccc2)c2ccccc21)c1ccccc1 (configuration not stated)	> 100 µM (inactive)
CC(=O)NCCNc1cc(-c2ccnc(Nc3cccc(Cl)c3)n2)ccn1	25 µM
Cc1cc(=O)n2nc(Oc3ccc(C#N)cc3Cl)sc2n1	40 µM
Cc1cccc(NS(=O)(=O)c2cnc3sc(C)cn3c2=O)c1	> 100 µM (inactive)
Cc1[nH]nc(Nc2ccnc3[nH]ccc23)c1C	> 100 µM (inactive)
Cn1c(CC(=O)NNC(=O)c2ccc3ccccc3n2)nc2ccccc21	> 100 µM (inactive)
Cc1ccc(-c2csc(NC(=O)C=Cc3ccc(S(=O)(=O)N4CCOCC4)cc3)n2)o1	> 100 µM (inactive)
COc1cc(F)c2ncc(F)c(CCN3CC[C@H](NCc4cc5c(cn4)OCS5)[C@@H](O)C3)c2c1	50 µM
O=C(Nc1nc2cc(Cl)ccc2o1)c1cccc(Cl)c1	> 100 µM (inactive)
c1ccc(CNc2cccc3ccncc23)cc1	> 100 µM (inactive)
O=c1oc2ccccc2n1C1CCN(Cc2ccccc2-c2cccnc2)CC1	> 100 µM (inactive)
CN(CC1CCCO1)S(=O)(=O)c1ccc(C(=O)Nc2nc(-c3ccccn3)cs2)cc1 (configuration not stated)	63 µM
N#Cc1cccc(CN2CCC(N(Cc3cccnc3)C(=O)c3cc(F)c(F)cc3F)CC2)c1	> 100 µM (inactive)
CCCc1cc(N)nc(-c2cc(CCC)cc(N)n2)c1	32 µM
COc1ccc(-c2csc(NC(=O)c3ccc([N+](=O)[O-])s3)n2)cc1	> 100 µM (inactive)
CC(=O)Nc1ccc(-c2noc(CC3CCCN(Cc4cccc(F)c4C)C3)n2)cc1 (configuration not stated)	> 100 µM (inactive)
COc1ccc(OC)c2c(=O)c(Cc3ccccc3)c(C)[nH]c12	> 100 µM (inactive)
N#Cc1cnc(Nc2cccc(CCN3CCOCC3)c2)nc1Nc1ccccc1C(N)=O	25 µM
